From patent US8575186B2, “Epiminocycloalkyl[b] indole derivatives as serotonin sub-type 6 (5-HT6) modulators and uses thereof” (Albany Molecular Research, Inc., priority 2009, dated 2013)
Where a name gives a salt, the structure may show the parent alone. Read-outs that look alike come from different tables or passages of the source.

What was measured:
human 5-HT6 receptor = human 5-HT6 receptor (Homo sapiens (Human), UniProt P50406); experiment: radioligand binding assay (SPA format), [N-methyl-3H]-LSD; settings: read-out: human 5HT6 Ki, human 5-HT6 receptor membranes, 10 nM [3H]-LSD
Chain of human 5-HT6 receptor (P50406 whole entry): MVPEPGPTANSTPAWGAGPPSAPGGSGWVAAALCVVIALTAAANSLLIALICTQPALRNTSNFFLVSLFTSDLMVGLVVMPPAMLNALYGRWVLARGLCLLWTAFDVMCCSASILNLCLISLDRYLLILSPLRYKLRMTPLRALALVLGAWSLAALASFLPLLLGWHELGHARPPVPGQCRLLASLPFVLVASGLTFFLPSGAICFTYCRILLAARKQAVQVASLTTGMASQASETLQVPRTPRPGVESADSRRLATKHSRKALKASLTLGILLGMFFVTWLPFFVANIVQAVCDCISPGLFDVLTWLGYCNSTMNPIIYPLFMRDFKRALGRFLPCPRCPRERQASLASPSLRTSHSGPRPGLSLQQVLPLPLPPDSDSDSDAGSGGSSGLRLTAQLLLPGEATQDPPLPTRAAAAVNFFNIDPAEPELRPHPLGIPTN

melting point	Compound	Ki (human 5-HT6 receptor) [nM]	further results
175 to 177 °C	COc1cc(S(=O)(=O)c2ccccc2)cc2c3c(n(C)c12)CC1CCC3N1.Cl (stereo not drawn) [Example 83, 2-Phenylsulfonyl-4-methoxy-5-methyl-5,6,7,8,9,10-hexahydro-7,10-epiminocyclohepta[b]indole hydrochloride]		
187 to 189 °C	CC(C)Oc1cc(S(=O)(=O)c2ccccc2)cc2c3c(n(C)c12)CC1CCC3N1.Cl (stereo not drawn) [Example 85, 2-Phenylsulfonyl-4-isopropoxy-5-methyl-5,6,7,8,9,10-hexahydro-7,10-epiminocyclohepta[b]indole hydrochloride]		
230 to 235 °C (dec.)	Cl.Cn1c2c(c3cc(S(=O)(=O)c4cccc(-c5ccccc5)c4)ccc31)C1CCC(C2)N1 (stereo not drawn) [Example 57, 2-[(3-Phenyl)-phenyl]sulfonyl-5-methyl-5,6,7,8,9,10-hexahydro-7,10-epiminocyclohepta[b]indole hydrochloride]		
211 to 217 °C	Cl.Cn1c2c(c3cc(S(=O)(=O)c4cccc(NC5CCCC5)c4)ccc31)C1CCC(C2)N1 (stereo not drawn) [Example 48, 2-[(3-N-Cyclopentylamino)phenyl]sulfonyl-5-methyl-5,6,7,8,9,10-hexahydro-7,10-epiminocyclohepta[b]indole hydrochloride]		
200 to 205 °C	Cl.Cn1c2c(c3cc(S(=O)(=O)c4ccc(C(F)(F)F)cc4)ccc31)C1CCC(C2)N1 (stereo not drawn) [Example 29, 2-(4-Trifluoromethylphenyl)sulfonyl-5-methyl-5,6,7,8,9,10-hexahydro-7,10-epiminocyclohepta[b]indole hydrochloride]		
225 to 228 °C	Cc1cc(S(=O)(=O)n2ccc3ccccc32)cc2c3c(n(C)c12)CC1CCC3N1.Cl (stereo not drawn) [Example 79, 2-[1-Indolesulfonyl]-4,5-dimethyl-5,6,7,8,9,10-hexahydro-7,10-epiminocyclohepta[b]indole]		
204 to 208 °C (dec.)	CN(C)c1cccc(S(=O)(=O)c2ccc3c(c2)c2c(n3C)CC3CCC2N3)c1.Cl (stereo not drawn) [Example 45, 2-[(3-N,N-Dimethylamino)phenyl]sulfonyl-5-methyl-5,6,7,8,9,10-hexahydro-7,10-epiminocyclohepta[b]indole hydrochloride]		
254 to 256 °C	Cc1cc(S(=O)(=O)c2cccc(F)c2)cc2c3c(n(C)c12)CC1CCC3N1.Cl (stereo not drawn) [Example 72, 2-(3-Fluorophenyl)sulfonyl-4,5-dimethyl-5,6,7,8,9,10-hexahydro-7,10-epiminocyclohepta[b]indole hydrochloride]		
238 to 244 °C (dec.)	Cl.Cn1c2c(c3cc(S(=O)(=O)c4ccccc4)ccc31)C1CCC(C2)N1 (stereo not drawn) [Example 27, 2-Phenylsulfonyl-5-methyl-5,6,7,8,9,10-hexahydro-7,10-epiminocyclohepta[b]indole hydrochloride]		
206 to 209 °C	COc1ccc2c(ccn2S(=O)(=O)c2ccc3c(c2)c2c(n3C)CC3CCC2N3)c1.Cl (stereo not drawn) [Example 66, 2-[1-(5-Methoxy)-indole]sulfonyl-5-methyl-5,6,7,8,9,10-hexahydro-7,10-epiminocyclohepta[b]indole hydrochloride]		
220 to 225 °C	Cl.Cn1c2c(c3cc(S(=O)(=O)c4ccc(N)cc4)ccc31)C1CCC(C2)N1 (stereo not drawn) [Example 53, 2-(4-Aminophenyl)sulfonyl-5-methyl-5,6,7,8,9,10-hexahydro-7,10-epiminocyclohepta[b]indole hydrochloride]		
211 to 214 °C	Cl.Cn1c2c(c3cc(S(=O)(=O)c4cccc(C#N)c4)ccc31)C1CCC(C2)N1 (stereo not drawn) [Example 43, 2-(3-Cyanophenyl)sulfonyl-5-methyl-5,6,7,8,9,10-hexahydro-7,10-epiminocyclohepta[b]indole hydrochloride]		
208 to 212 °C (dec.)	Cl.Cn1c2c(c3cc(S(=O)(=O)c4ccsc4)ccc31)C1CCC(C2)N1 (stereo not drawn) [Example 56, 2-(3-Thienyl)sulfonyl-5-methyl-5,6,7,8,9,10-hexahydro-7,10-epiminocyclohepta[b]indole hydrochloride]		
227 to 229 °C	Cc1cc(S(=O)(=O)c2cccc(Cl)c2)cc2c3c(n(C)c12)CC1CCC3N1.Cl (stereo not drawn) [Example 73, 2-(3-Chloro-phenyl)sulfonyl-4,5-dimethyl-5,6,7,8,9,10-hexahydro-7,10-epiminocyclohepta[b]indole hydrochloride]		
218 to 220 °C	Cl.Cn1c2c(c3cc(S(=O)(=O)n4ccc5cc(F)ccc54)ccc31)C1CCC(C2)N1 (stereo not drawn) [Example 63, 2-[1-(5-Fluoro)-indole]sulfonyl-5-methyl-5,6,7,8,9,10-hexahydro-7,10-epiminocyclohepta[b]indole hydrochloride]		
	COc1cc(S(=O)(=O)c2cn(C)c3ccccc23)cc2c3c(n(C)c12)CC1CCC3N1 (stereo not drawn) [Example 224]	0.99	
	Cn1c2c(c3cc(S(=O)(=O)c4cccc(Cl)c4)ccc31)C1CCC(C2)N1 (stereo not drawn) [Example 157]	2.7	
	Cn1cc(S(=O)(=O)c2ccc3c(c2)c2c(n3C)CC3CCC2N3)c2ccccc21 (stereo not drawn) [Example 166]	0.41	
220 to 222 °C	Cl.Cn1c2c(c3cc(S(=O)(=O)c4ccc5ccccc5c4)ccc31)C1CCC(C2)N1 (stereo not drawn) [Example 50, 2-(2-Napthyl)sulfonyl-5-methyl-5,6,7,8,9,10-hexahydro-7,10-epiminocyclohepta[b]indole hydrochloride]		
	CCOc1cc(S(=O)(=O)c2ccccc2)cc2c3c(n(C)c12)CC1CCC3N1 (stereo not drawn) [Example 234]	4.9	
	Cn1c2c(c3cc(S(=O)(=O)c4cccc5cnccc45)ccc31)C1CCC(C2)N1 (stereo not drawn) [Example 111]	22	
	CCc1cc(S(=O)(=O)c2ccccc2)cc2c3c(n(C)c12)CC1CCC3N1 (stereo not drawn) [Example 80, 2-Phenylsulfonyl-4-ethyl-5-methyl-5,6,7,8,9,10-hexahydro-7,10-epiminocyclohepta[b]indole hydrochloride]	17	

melting point	Compound	Ki (human 5-HT6 receptor) [nM]	further results
	CC(C)n1c2c(c3cc(S(=O)(=O)c4ccccc4)ccc31)C1CCC(C2)N1 (stereo not drawn) [Example 181]	284	
	Cn1c2c(c3cc(S(=O)(=O)c4cn(-c5ccccc5)c5ccccc45)ccc31)C1CCC(C2)N1 (stereo not drawn) [Example 103]	9.3	
	Cn1c2c(c3cc(S(=O)(=O)n4ccc5ncccc54)ccc31)C1CCC(C2)N1 (stereo not drawn) [Example 107]	78	
	COc1cc(S(=O)(=O)c2cccc(F)c2)cc2c3c(n(C)c12)CC1CCC3N1 (stereo not drawn) [Example 222]	0.56	
	COc1cc(S(=O)(=O)n2ccc3ccc(C#N)cc32)cc2c3c(n(C)c12)CC1CCC3N1 (stereo not drawn) [Example 242]	2.4	
	Cn1c2c(c3cc(S(=O)(=O)c4cc(F)ccn4)ccc31)C1CCC(C2)N1 (stereo not drawn) [Example 96]	341	
	Cn1c2c(c3cc(S(=O)(=O)c4cccc(Cl)c4)ccc31)C1CCC(C2)N1 (stereo not drawn) [Example 36, 2-(3-Chlorophenyl)sulfonyl-5-methyl-5,6,7,8,9,10-hexahydro-7,10-epiminocyclohepta[b]indole hydrochloride]		Ki (human 5-HT6 receptor; hydrochloride): 1.8 nM
	Cn1c2c(c3cc(S(=O)(=O)c4ccccc4O)ccc31)C1CCC(C2)N1 (stereo not drawn) [Example 105]	100	
	Cn1c2c(c3cc(S(=O)(=O)c4ccc5sccc5c4)ccc31)C1CCC(C2)N1 (stereo not drawn) [Example 104]	5	
	Cn1c2c(c3cc(S(=O)(=O)c4cccc(C(F)(F)F)c4)cc(O)c31)C1CCC(C2)N1 (stereo not drawn) [Example 209]	0.53	
	Cn1c2c(c3cc(S(=O)(=O)c4cn(Cc5ccccc5)c5ccccc45)ccc31)C1CCC(C2)N1 (stereo not drawn) [Example 102]	0.71	
	CN1C2CCC1c1c(n(C)c3ccc(S(=O)(=O)c4ccccc4)cc13)C2 (stereo not drawn) [Example 69, 2-Phenylsulfonyl-5-methyl-5,6,7,8,9,10-hexahydro-7,10-N-methyl-epiminocyclohepta[b]indole hydrochloride]	7.8	
	COc1cc(S(=O)(=O)c2cccc(Cl)c2)cc2c3c(n(C)c12)CC1CCC3N1C (stereo not drawn) [Example 225]	0.53	
	COc1cc(S(=O)(=O)c2cccc(F)c2)cc2c3c(n(C)c12)CC1CCC3N1 (stereo not drawn) [Example 221]	3.3	
228 to 230 °C	Cc1cccc(S(=O)(=O)c2cc(C)c3c(c2)c2c(n3C)CC3CCC2N3)c1.Cl (stereo not drawn) [Example 74, 2-(3-Methyl-phenyl)sulfonyl-4,5-dimethyl-5,6,7,8,9,10-hexahydro-7,10-epiminocyclohepta[b]indole hydrochloride]		
	Cn1c2c(c3cc(S(=O)(=O)c4ccccc4)ccc31)C1CCCC(C2)N1 (stereo not drawn) [Example 92, 2-(Phenylsulfonyl)-5-methyl-6,7,8,9,10,11-hexahydro-5H-7,11-epiminocycloocta[b]indole hydrochloride]	150	
193 to 196 °C	Cl.Cn1c2c(c3cc(S(=O)(=O)c4cccc(OC(F)(F)F)c4)ccc31)C1CCC(C2)N1 (stereo not drawn) [Example 39, 2-(3-Trifluoromethoxyphenyl)sulfonyl-5-methyl-5,6,7,8,9,10-hexahydro-7,10-epiminocyclohepta[b]indole hydrochloride]		
	Cn1c2c(c3cc(S(=O)(=O)c4ccc5sccc5c4)ccc31)C1CCC(C2)N1 (stereo not drawn) [Example 167]	7.5	
	Cc1cc(S(=O)(=O)c2cn(C)c3ccccc23)cc2c3c(n(C)c12)CC1CCC3N1 (stereo not drawn) [Example 140]	0.56	
	Cn1c2c(c3cc(S(=O)(=O)c4cccc5ncccc45)ccc31)C1CCC(C2)N1 (stereo not drawn) [Example 110]	148	
	Cn1c2c(c3cc(S(=O)(=O)c4ccc5sccc5c4)ccc31)C1CCC(C2)N1 (stereo not drawn) [Example 168]	3.3	

Compound	melting point	Ki (human 5-HT6 receptor) [nM]	further results
CN(C)Cc1ccc(S(=O)(=O)c2ccc3c(c2)c2c(n3C)CC3CCC2N3)cc1 (stereo not drawn) (as salt: hydrochloride) [Example 34, 2-[4-(N,N-Dimethylaminomethyl)phenyl]sulfonyl-5-methyl-5,6,7,8,9,10-hexahydro-7,10-epiminocyclohepta[b]indole dihydrochloride]	244 to 246 °C		
Cn1c2c(c3cc(S(=O)(=O)c4ccc(CN)cc4)ccc31)C1CCC(C2)N1 (stereo not drawn) (as salt: hydrochloride) [Example 33, 2-(4-Aminomethylphenyl)sulfonyl-5-methyl-5,6,7,8,9,10-hexahydro-7,10-epiminocyclohepta[b]indole dihydrochloride]	237 to 239 °C		
